Holding throughout (type): cell-based
For test [1], the system named is Staphylococcus aureus ATCC 29213 (MSSA). Description: Broth microdilution MIC, S. aureus ATCC 29213 (MSSA). Conditions: broth microdilution, 37° C., 20 hours, read-out: MIC S. aureus ATCC 29213 (MSSA). The method, boiled down: (§1)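 Broth microdilution in strain-specific test medium with ~5.0×10^5 cfu/ml inoculum, 1% DMSO and two-fold compound dilutions from 64 to 0.0625 μg/ml. Plates were held 20 hours at 37° C in ambient air. S. pneumoniae colonies were grown beforehand on blood agar in 5% CO2.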

The subject of test [2] is Staphylococcus aureus NRS384 (MRSA). Description: Broth microdilution MIC, S. aureus NRS384 (MRSA). Particulars: Staphylococcus aureus, broth microdilution, 37° C., 20 hours. Put shortly: as §1
A general note: Broth dilution looks for growth in wells or tubes with falling amounts of substance.

Test [3] relates to Escherichia coli ATCC 25922. Put plainly: Broth microdilution MIC, E. coli ATCC 25922 (MHIIB w & w/o 4 mM EDTA). Particulars: broth microdilution, 37° C., 20 hours; for MIC: Escherichia coli, ATCC25922, without EDTA, read-out: MIC E. coli ATCC 25922; for MIC E. coli ATCC 25922 + 4 mM EDTA: with 4 mM EDTA. Put shortly:
as §1

In test [4] the test system is Enterococcus faecium ATCC 700221 (VRE). Description: Broth microdilution MIC, E. faecium ATCC 700221 (VRE). Particulars: Enterococcus faecium, broth microdilution, 37° C., 20 hours. The method, boiled down:
as §1

The test system of test [5] is Bacillus subtilis ATCC 6633. Put plainly: Broth microdilution MIC, B. subtilis ATCC 6633. Particulars: ATCC6633, broth microdilution, 37° C., 20 hours, read-out: MIC B. subtilis ATCC 6633. Put shortly:
as §1

Test [6] deals with Enterococcus faecalis ATCC 29212. Put plainly: Broth microdilution MIC, E. faecalis ATCC 29212. Conditions: ATCC29212, broth microdilution, 37° C., 20 hours, read-out: MIC E. faecalis ATCC 29212. The method, boiled down:
as §1

The subject of test [7] is Streptococcus pneumoniae ATCC 49619. Put plainly: Broth microdilution MIC, S. pneumoniae ATCC 49619. Conditions: ATCC49619, broth microdilution, 37° C., 20 hours, read-out: MIC S. pneumoniae ATCC 49619. Put shortly: as §1
Where [8] appears, read: read-out: MIC E. faecium ATCC 700221 (VRE).

In brackets after ≈: the same amount, converted by molar mass. Where two headings read alike, the source gives them in different places. Bounds are passed on as bounds.

As usually defined, the MIC is the least concentration at which growth counts as inhibited.

For the molecule `CS(=O)(=O)CCOCCn1ncc2nc(NCc3ccc(Cl)c(Cl)c3)[nH]c(=O)c21` [Compound 220, 5-((3,4-dichlorobenzyl)amino)-1-(2-(2-(methylsulfonyl)ethoxy)ethyl)-1H-pyrazolo[4,3-d]pyrimidin-7(6H)-one], the MIC was 8 µg/mL (≈ 17.4 µM) in test [1]; 16 µg/mL (≈ 34.8 µM) in test [2] (read-out: MIC NRS 384 (MRSA)); above 64 µg/mL in test [3]; 2 µg/mL (≈ 4.34 µM) in test [4] (setting [8]); 4 µg/mL (≈ 8.69 µM) in test [5]; 8 µg/mL (≈ 17.4 µM) in test [6]. Also, the MIC in test [7] worked out at 2 µg/mL (≈ 4.34 µM). Also, in test [3], the “MIC E. coli ATCC 25922 + 4 mM EDTA” value was above 64 µg/mL.

On to `O=c1[nH]c(NCc2ccc(Cl)c(Cl)c2)nc2cnn(CCCc3nnn[nH]3)c12` [Compound 221, 1-(3-(1H-tetrazol-5-yl)propyl)-5-((3,4-dichlorobenzyl)amino)-1H-pyrazolo[4,3-d]pyrimidin-7(6H)-one], for which the MIC was above 64 µg/mL in test [1]; above 64 µg/mL in test [2] (read-out: MIC NRS 384 (MRSA)); above 64 µg/mL in test [3]; 32 µg/mL (≈ 76.1 µM) in test [4] (setting [8]); above 64 µg/mL in test [5]; above 64 µg/mL in test [6]. The MIC in test [7] came out at 64 µg/mL (≈ 152 µM). Besides, in test [3], the “MIC E. coli ATCC 25922 + 4 mM EDTA” value was above 64 µg/mL.

As to `O=c1[nH]c(NCc2ccc(Cl)c(Cl)c2)nc2cnn(-c3ccncc3)c12` [Compound 222, 5-[(3,4-dichlorophenyl)methylamino]-1-(4-pyridyl)-6H-pyrazolo[4,3-d]pyrimidin-7-one], the minimal inhibitory concentration (MIC) was 2 µg/mL (≈ 5.16 µM) in test [1]; 1 µg/mL (≈ 2.58 µM) in test [2] (read-out: MIC NRS 384 (MRSA)); at most 1 µg/mL in test [2] (MHIIB, read-out: MIC against S. aureus NRS 384 (MRSA)); above 64 µg/mL in test [3]; 2 µg/mL (≈ 5.16 µM) in test [4] (setting [8]); at most 1 µg/mL in test [4] (MHIIB, read-out: MIC against E. faecium ATCC 700221 (VRE)). Also, the results for the MIC in test [5], in test [6] and in test [7] were 1 µg/mL (≈ 2.58 µM), 4 µg/mL (≈ 10.3 µM) and 2 µg/mL (≈ 5.16 µM), respectively. Besides, the “MIC E. coli ATCC 25922 + 4 mM EDTA” value in test [3] was determined as 64 µg/mL.

With `CC(C(=O)O)n1cc2nc(NCc3ccc(Cl)c(Cl)c3)[nH]c(=O)c2n1` (centres unmarked) [Compound 223, 2-(5-((3,4-dichlorobenzyl)amino)-7-oxo-6,7-dihydro-2H-pyrazolo[4,3-d]pyrimidin-2-yl)propanoic acid], the MIC in test [1], in test [2] (read-out: MIC NRS 384 (MRSA)), in test [3], in test [4] (setting [8]), in test [5] and in test [6] was above 64 µg/mL throughout. Further, in test [7], the minimum inhibitory concentration (MIC) is above 64 µg/mL. Also, in test [3], the “MIC E. coli ATCC 25922 + 4 mM EDTA” value is above 64 µg/mL.

For `COC(=O)C(C)n1cc2nc(NCc3ccc(Cl)c(Cl)c3)[nH]c(=O)c2n1` (centres unmarked) [Compound 224, Methyl 2-(5-((3,4-dichlorobenzyl)amino)-7-oxo-6,7-dihydro-2H-pyrazolo[4,3-d]pyrimidin-2-yl)propanoate], the MIC in test [1], in test [2] (read-out: MIC NRS 384 (MRSA)), in test [3], in test [4] (setting [8]), in test [5] and in test [6] was above 64 µg/mL throughout. The minimal inhibitory concentration (MIC) in test [7] is 32 µg/mL (≈ 80.8 µM). Also, the “MIC E. coli ATCC 25922 + 4 mM EDTA” value in test [3] was above 64 µg/mL.

On to `CC(CO)n1cc2nc(NCc3ccc(Cl)c(Cl)c3)[nH]c(=O)c2n1` (centres unmarked) [Compound 225, 5-((3,4-dichlorobenzyl)amino)-2-(1-hydroxypropan-2-yl)-2H-pyrazolo[4,3-d]pyrimidin-7(6H)-one], for which the MIC is 64 µg/mL (≈ 174 µM) in test [1]; 64 µg/mL (≈ 174 µM) in test [2] (read-out: MIC NRS 384 (MRSA)); above 64 µg/mL in test [3]; 32 µg/mL (≈ 86.9 µM) in test [4] (setting [8]); 32 µg/mL (≈ 86.9 µM) in test [5]; 64 µg/mL (≈ 174 µM) in test [6]. In addition, the minimum inhibitory concentration (MIC) in test [7] was determined as 16 µg/mL (≈ 43.5 µM). The “MIC E. coli ATCC 25922 + 4 mM EDTA” value in test [3] is above 64 µg/mL.

As to `CC(C(=O)O)n1ncc2nc(NCc3ccc(Cl)c(Cl)c3)[nH]c(=O)c21` (centres unmarked) [Compound 226, 2-(5-((3,4-dichlorobenzyl)amino)-7-oxo-6,7-dihydro-1H-pyrazolo[4,3-d]pyrimidin-1-yl)propanoic acid], the MIC is above 64 µg/mL in test [1]; 64 µg/mL (≈ 167 µM) in test [2] (read-out: MIC NRS 384 (MRSA)); above 64 µg/mL in test [3]; 64 µg/mL (≈ 167 µM) in test [4] (setting [8]); 64 µg/mL (≈ 167 µM) in test [5]; above 64 µg/mL in test [6]. The MIC in test [7] was above 64 µg/mL. The “MIC E. coli ATCC 25922 + 4 mM EDTA” value in test [3] was above 64 µg/mL.

For `COC(=O)C(C)n1ncc2nc(NCc3ccc(Cl)c(Cl)c3)[nH]c(=O)c21` (centres unmarked) [Compound 227, Methyl 2-(5-((3,4-dichlorobenzyl)amino)-7-oxo-6,7-dihydro-1H-pyrazolo[4,3-d]pyrimidin-1-yl)propanoate], the minimal inhibitory concentration (MIC) was 8 µg/mL (≈ 20.2 µM) in test [1]; 8 µg/mL (≈ 20.2 µM) in test [2] (read-out: MIC NRS 384 (MRSA)); above 64 µg/mL in test [3]; 4 µg/mL (≈ 10.1 µM) in test [4] (setting [8]); 4 µg/mL (≈ 10.1 µM) in test [5]; 16 µg/mL (≈ 40.4 µM) in test [6]. For the same molecule, the minimal inhibitory concentration (MIC) in test [7] stood at 16 µg/mL (≈ 40.4 µM). The “MIC E. coli ATCC 25922 + 4 mM EDTA” value in test [3] turned out to be 32 µg/mL.

As to `CC(CO)n1ncc2nc(NCc3ccc(Cl)c(Cl)c3)[nH]c(=O)c21` (centres unmarked) [Compound 228, 5-((3,4-dichlorobenzyl)amino)-1-(1-hydroxypropan-2-yl)-1H-pyrazolo[4,3-d]pyrimidin-7(6H)-one], the MIC in test [1] is 16 µg/mL (≈ 43.5 µM); in test [2] (read-out: MIC NRS 384 (MRSA)), 8 µg/mL (≈ 21.7 µM); in test [3], above 64 µg/mL; in test [4] (setting [8]), 8 µg/mL (≈ 21.7 µM); in test [5] it was 4 µg/mL (≈ 10.9 µM); in test [6], 16 µg/mL (≈ 43.5 µM). For the same molecule, the MIC in test [7] amounted to 8 µg/mL (≈ 21.7 µM). Moreover, in test [3], the “MIC E. coli ATCC 25922 + 4 mM EDTA” value came to 64 µg/mL.

Turning to `O=C(O)CCn1ncc2nc(NCc3ccc(Cl)c(Cl)c3)[nH]c(=O)c21` [Compound 229, 3-(5-((3,4-dichlorobenzyl)amino)-7-oxo-6,7-dihydro-1H-pyrazolo[4,3-d]pyrimidin-1-yl)propanoic Acid], the MIC in test [1] was above 64 µg/mL; in test [2] (read-out: MIC NRS 384 (MRSA)) it was above 64 µg/mL; in test [3], above 64 µg/mL; in test [4] (setting [8]), 64 µg/mL (≈ 167 µM); in test [5] it was above 64 µg/mL; in test [6], 64 µg/mL (≈ 167 µM). For the same molecule, the MIC in test [7] turned out to be 16 µg/mL (≈ 41.9 µM). Further, in test [3], the “MIC E. coli ATCC 25922 + 4 mM EDTA” value is above 64 µg/mL.

With `O=C(O)CCn1cc2nc(NCc3ccc(Cl)c(Cl)c3)[nH]c(=O)c2n1` [Compound 230, 3-(5-((3,4-Dichlorobenzyl)amino)-7-oxo-6,7-dihydro-2H-pyrazolo[4,3-d]pyrimidin-2-yl)propanoic acid], the MIC in test [1] is above 64 µg/mL; in test [2] (read-out: MIC NRS 384 (MRSA)), 64 µg/mL (≈ 167 µM); in test [3] it was above 64 µg/mL; in test [4] (setting [8]) it was 64 µg/mL (≈ 167 µM); in test [5], 64 µg/mL (≈ 167 µM); in test [6], 64 µg/mL (≈ 167 µM). In addition, the minimal inhibitory concentration (MIC) in test [7] stood at 32 µg/mL (≈ 83.7 µM). In test [3], the “MIC E. coli ATCC 25922 + 4 mM EDTA” value turned out to be 64 µg/mL.

In the case of `COC(=O)CCn1ncc2nc(NCc3ccc(Cl)c(Cl)c3)[nH]c(=O)c21` [Compound 231, Methyl 3-(5-((3,4-dichlorobenzyl)amino)-7-oxo-6,7-dihydro-1H-pyrazolo[4,3-d]pyrimidin-1-yl)propanoate], the MIC is 4 µg/mL (≈ 10.1 µM) in test [1]; 2 µg/mL (≈ 5.05 µM) in test [2] (read-out: MIC NRS 384 (MRSA)); above 64 µg/mL in test [3]; 2 µg/mL (≈ 5.05 µM) in test [4] (setting [8]); 1 µg/mL (≈ 2.52 µM) in test [5]; 4 µg/mL (≈ 10.1 µM) in test [6]. The MIC in test [7] came to 4 µg/mL (≈ 10.1 µM). In addition, in test [3], the “MIC E. coli ATCC 25922 + 4 mM EDTA” value was above 64 µg/mL.

(Values after patent US10723741B1, “DNA polymerase IIIC inhibitors and use thereof” (Acurx Pharmaceuticals, LLC, priority 2018, dated 2020).)
